This data set is described as follows: Pilot study: irregular vaginal bleeding. Format: in vivo, post-menopausal women. To be noted: 2.5 mg tibolone per day added to 20 mg tamoxifen per day.

Description: The women, all below the age of 65 years, were postmenopausal for at least three years at the time of diagnosis. Their follicle stimulating hormone (FSH) levels were greater than 40 IU/L and their estradiol (E2) levels were below 20 pg/mL.

Consider `C#C[C@]1(O)CC[C@H]2[C@@H]3[C@H](C)CC4=C(CCC(=O)C4)[C@H]3CC[C@@]21C` [Tibolone, (7α, 17α)-17-hydroxy-7-methyl-19-nor-17-pregn-5(10)-en-20-yn-3-one], for which the “effect on irregular bleeding” value is reported as “minimal effect”.

The values above are taken from US20050222100A1 (priority 2002, published 2005).
